# Test results published in patent publication US20220018849A1, “SERINE HYDROLASE PROFILING ASSAY IN BIOTHERAPEUTICS” (Merck Sharp & Dohme Corp., priority 2020, published 2022).
# Legend:
# [1] = reference 6; cited from earlier work
# [2] = PS-80 degradation in protein formulations containing PLBL2 (unpublished results); type: physicochemical; settings: protein formulations containing over 500 ppm of PLBL2
# [3] = test system: serine hydrolases; assay: Activity-based chemical proteomics approach (fluorophosphonate probe enrichment, LC-MS/MS); settings: HCCF, compared to other lipases
enrichment of the enzyme by the chemical probes ([3]; listed as CHO PLBL2),enrichment of the enzyme by the chemical probes ([3]; listed as Plbl2),Substance,concentration at which PS-80 and PS-20 are degraded (as low as) [1] [ppm],concentration with significant impact on PS-80 degradation [1],PS-80 degradation [2]
–,–,"phospholipase A2, group XV [Pla2g15]",0.3,below 1 ppm,–
not enriched,limited enrichment,phospholipase B domain containing 2 [Plbd2],–,–,without any PS-80 degradation
